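Method: 48-hour compound exposure of cells in 96-well plates, five concentrations, linear interpolation of endpoints. TGI marks complete inhibition of growth.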
How the values were obtained:
Assay in all cases: DTP human tumour cell line panel, 48 h
HOP-92 NSCLC = system: HOP-92 NSCLC
RXF 393 renal = system: RXF 393 renal
MALME-3M melanoma = system: MALME-3M melanoma
SF-268 CNS = system: SF-268 CNS
DU-145 prostate = system: DU-145 prostate
NCI-H23 lung = system: NCI-H23 lung
MDA-N = system: MDA-N
OVCAR-3 ovarian = system: OVCAR-3 ovarian
CAKI-1 renal = system: CAKI-1 renal
SK-MEL-5 melanoma = system: SK-MEL-5 melanoma
HCT-15 colon = system: HCT-15 colon
U251 CNS = system: U251 CNS
EKVX NSCLC = system: EKVX NSCLC
SF-295 CNS = system: SF-295 CNS
NCI-H226 lung = system: NCI-H226 lung
OVCAR-4 ovarian = system: OVCAR-4 ovarian
SNB-19 CNS = system: SNB-19 CNS
HCT-116 colon = system: HCT-116 colon
SR leukemia = system: SR leukemia
IGROV1 ovarian = system: IGROV1 ovarian
MOLT-4 leukemia = system: MOLT-4 leukemia
KM12 colon = system: KM12 colon
MDA-MB-231 breast = system: MDA-MB-231 breast
SW-620 colon = system: SW-620 colon
T-47D breast = system: T-47D breast
COLO 205 colon = system: COLO 205 colon
SNB-75 CNS = system: SNB-75 CNS
A498 renal = system: A498 renal
OVCAR-8 ovarian = system: OVCAR-8 ovarian
SK-MEL-28 melanoma = system: SK-MEL-28 melanoma
OVCAR-5 ovarian = system: OVCAR-5 ovarian
CCRF-CEM leukemia = system: CCRF-CEM leukemia
HS 578T breast = system: HS 578T breast
SN12C renal = system: SN12C renal
NCI/ADR-RES ovarian = system: NCI/ADR-RES ovarian
HOP-62 NSCLC = system: HOP-62 NSCLC
HCC-2998 colon = system: HCC-2998 colon
ACHN renal = system: ACHN renal
HT29 colon = system: HT29 colon
BT-549 breast = system: BT-549 breast
TK-10 renal = system: TK-10 renal
NCI-H460 lung = system: NCI-H460 lung
MCF7 breast = system: MCF7 breast
SF-539 CNS = system: SF-539 CNS
UO-31 renal = system: UO-31 renal
UACC-257 melanoma = system: UACC-257 melanoma
M14 melanoma = system: M14 melanoma
MDA-MB-435 = system: MDA-MB-435
A549 NSCLC = system: A549 NSCLC
PC-3 prostate = system: PC-3 prostate
786-0 renal = system: 786-0 renal
NCI-H522 lung = system: NCI-H522 lung
K-562 leukemia = system: K-562 leukemia
SK-OV-3 ovarian = system: SK-OV-3 ovarian
LOX IMVI melanoma = system: LOX IMVI melanoma
SK-MEL-2 melanoma = system: SK-MEL-2 melanoma
HL-60(TB) leukemia = system: HL-60(TB) leukemia
UACC-62 melanoma = system: UACC-62 melanoma
RPMI-8226 leukemia = system: RPMI-8226 leukemia

Measured: TGI

Cc1ccsc1C(=O)C(CC(=O)c1cccs1)c1ccsc1 (stereo unspecified)
77.1 µM: T-47D breast
not listed: LOX IMVI melanoma | SK-MEL-2 melanoma | HL-60(TB) leukemia | UACC-62 melanoma | RPMI-8226 leukemia
> 100 µM: all other assays above

COc1ccc(CC2c3cc(OC)c(OC)c(OC)c3CC[N+]2(C)C)cc1Oc1ccc(CC2c3cc4c(c(OC)c3CCN2C)OCO4)cc1 (stereo unspecified)
89.7 µM: HL-60(TB) leukemia
not listed: CCRF-CEM leukemia | HOP-62 NSCLC | RPMI-8226 leukemia
> 100 µM: all other assays above

Cc1cccc(NC(=O)CCl)c1
5.64 µM: U251 CNS
8.83 µM: CCRF-CEM leukemia
8.18 µM: OVCAR-4 ovarian
4.32 µM: NCI-H522 lung
not listed: HOP-92 NSCLC | SNB-75 CNS | UO-31 renal
> 10 µM: all other assays above
